According to paper PMC4039107, “Spores of Clostridium engineered for clinical efficacy and safety cause regression and cure of tumors in vivo” (Oncotarget, 2014):
Read-outs that look alike come from different tables or passages of the source.

What was measured:
Type in all cases: biochemical
[1] = target: T1, NmeNTR (Neisseria meningitidis, UniProt Q9K022); test: HPLC CB1954 nitroreductase assay
T1 construct: gene NMB0804
Text: HPLC CB1954 nitroreductase assay on NmeNTR

[2] = target: T2, HsoNTR (Histophilus somni, UniProt A0A9Q6YZG6); test: HPLC CB1954 nitroreductase assay
T2 construct: gene JFL49_05940
T2 sequence (A0A9Q6YZG6 entry or part of it): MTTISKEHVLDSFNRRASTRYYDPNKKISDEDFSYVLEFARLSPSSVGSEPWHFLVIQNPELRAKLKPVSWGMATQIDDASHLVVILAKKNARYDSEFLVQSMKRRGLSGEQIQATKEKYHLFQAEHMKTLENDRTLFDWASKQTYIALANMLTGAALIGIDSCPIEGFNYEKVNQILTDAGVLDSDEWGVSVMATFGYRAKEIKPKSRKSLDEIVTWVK
Text: HPLC CB1954 nitroreductase assay on HsoNTR

[3] = target: T3, NfnB (Escherichia coli, UniProt P38489); test: menadione reductase activity of C. sporogenes E1 lysate; details: background of endogenous quinone reductases in wild type and pyrE mutant controls
T3 construct: gene nfsB; untagged as far as told; expressed from fdx promoter at pyrE locus of C. sporogenes strain E1; cell lysate
T3 sequence (P38489 1-217): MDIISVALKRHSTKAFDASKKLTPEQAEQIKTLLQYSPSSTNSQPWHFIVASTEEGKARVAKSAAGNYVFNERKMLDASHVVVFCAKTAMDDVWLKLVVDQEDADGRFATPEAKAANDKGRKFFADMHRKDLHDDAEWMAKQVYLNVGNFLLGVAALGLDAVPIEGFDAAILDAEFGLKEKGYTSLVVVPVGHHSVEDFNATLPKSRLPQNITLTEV

[4] = kcat is with NADH as co-substrate, read-out: Km ^CB1954
[5] = co-substrate CB1954, read-out: Km ^NADH

T1 sequence (Q9K022 entry or part of it): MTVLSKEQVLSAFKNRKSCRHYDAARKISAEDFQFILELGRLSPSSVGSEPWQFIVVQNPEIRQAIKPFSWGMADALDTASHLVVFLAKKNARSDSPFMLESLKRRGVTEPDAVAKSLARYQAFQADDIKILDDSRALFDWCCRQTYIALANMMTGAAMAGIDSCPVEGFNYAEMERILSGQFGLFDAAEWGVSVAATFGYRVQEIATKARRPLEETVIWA

Molecule `NC(=O)c1cc(N2CC2)c([N+](=O)[O-])cc1[N+](=O)[O-]` [CB1954, 5-(aziridin-1-yl)-2,4-dinitrobenzamide] has a Km [1, 4] of 2.47 µM and a Km [2, 4] of 22 µM.

Work on `NC(=O)C1=CN([C@@H]2O[C@H](COP(=O)(O)OP(=O)(O)OC[C@H]3O[C@@H](n4cnc5c(N)ncnc54)[C@H](O)[C@@H]3O)[C@@H](O)[C@H]2O)C=CC1` [NADH] yielded a Km [1, 5] of 188 µM and a Km [2, 5] of 644 µM.

In the case of `CC1=CC(=O)c2ccccc2C1=O` [menadione], the “specific menadione reductase activity” value [3] is reported as “both E1 and N1 contained menadione reductase activity elevated significantly above the endogenous levels”.
